The record followed here is US10596153B2, “Antimicrobial agents and the method of synthesizing the antimicrobial agents” (Arkansas State University—Jonesboro, priority 2016, dated 2020).

Like-named read-outs stand apart in the source and are kept apart here.

Assay in all cases: Disk diffusion assay, zone of inhibition
Holding throughout (format): cell-based
On the technique in general: In agar diffusion tests the substance spreads into inoculated agar from a disc or well.

Assay [1] relates to Bacillus subtilis ATCC 6633. As to the method:
(§1) Bacteria were streaked onto Tryptic Soy Agar plates and incubated overnight at 35° C. Bacteria were suspended in sterile saline to the turbidity of a 0.5 McFarland standard then swabbed onto Mueller Hinton Agar plates to create lawns. Test compounds were dissolved in DMSO at a concentration of 0.1 M, and 10 μL of each were pipetted onto 6 mm diameter glass fiber disks placed on the lawns. Plates were incubated for 20-24 hours at 35° C. after which zones of inhibition (diameters in mm) were measured for each test compound.

Assay [2] relates to Staphylococcus aureus ATCC 25923. Here is the method: as §1
Assay [3] has as its system Pseudomonas aeruginosa ATCC 27853. The settings on record: N-arylamine derivatives; 10 μL of 0.1 M in DMSO on 6 mm disk; 20-24 hours at 35° C.; NA=No activity. Here is the method: as §1
Assay [4] deals with Enterobacter aerogenes ATCC 13048. The settings on record: N-arylamine derivatives; 10 μL of 0.1 M in DMSO on 6 mm disk; 20-24 hours at 35° C.; NA=No activity. Here is the method: as §1
[5] abbreviates: ATCC6633, N-arylamine derivatives, 10 μL of 0.1 M in DMSO on 6 mm disk, 20-24 hours at 35° C., NA=No activity, read-out: Zone of inhibition in mm, B s.
The mark [6] stands for this setting: ATCC6633, azomethines, 10 μL of 0.1 M in DMSO on 6 mm disk, 20-24 hours at 35° C., NA=No activity, read-out: Zone of inhibition in mm, B s.
Setting [7] is: ATCC25923, N-arylamine derivatives, 10 μL of 0.1 M in DMSO on 6 mm disk, 20-24 hours at 35° C., NA=No activity, read-out: Zone of inhibition in mm, S a.
The mark [8] stands for this setting: ATCC6633, read-out: Zone of inhibition in mm, B s, N-arylamine derivatives, 10 μL of 0.1 M in DMSO on 6 mm disk, 20-24 hours at 35° C., NA=No activity.
Setting [9] is: ATCC6633, read-out: Zone of inhibition in mm, B s, azomethines, 10 μL of 0.1 M in DMSO on 6 mm disk, 20-24 hours at 35° C., NA=No activity.
Where [10] appears, read: ATCC25923, read-out: Zone of inhibition in mm, S a.

Consider `Cc1ccc(Br)cc1` [d], for which the results for the zone of inhibition at 100000 µM in assay [1] (setting [5]), in assay [1] (setting [6]) and in assay [2] (setting [7]) were 8 mm, 8 mm and 9 mm, respectively.

For the compound `Cc1ccc(C)cc1` [e], the zone of inhibition (as a rule, the extent of the growth-free halo in a diffusion test) at 100000 µM in assay [1] (setting [8]) is 18 mm; in assay [1] (setting [9]), 8 mm; in assay [2] (setting [10]) it was 17 mm.

Take `Cc1ccc(Oc2ccccc2)cc1` [h]: the results for the zone of inhibition at 100000 µM in assay [1] (setting [5]) and in assay [2] (setting [7]) were 12 mm and 11 mm, respectively.

Take `Cc1ccc(F)cc1` [b]: the zone of inhibition at 100000 µM turned out to be 18 mm in assay [1] (setting [8]), 8 mm in assay [1] (setting [9]) and 18 mm in assay [2] (setting [10]).

On to `Cc1ccc(Cl)cc1` [c], for which the zone of inhibition at 100000 µM stood at 18 mm in assay [1] (setting [5]), 9 mm in assay [1] (setting [6]) and 18 mm in assay [2] (setting [7]).

In the case of `Cc1ccc(C(C)(C)C)cc1` [f], the zone of inhibition at 100000 µM in assay [1] (setting [5]) worked out at 14 mm; in assay [1] (setting [6]), 8 mm; in assay [2] (setting [7]), 8 mm.

Regarding `COc1ccc(C)cc1` [g], the figures for the zone of inhibition at 100000 µM in assay [1] (setting [8]), in assay [1] (setting [9]) and in assay [2] (setting [10]) were 14 mm, 10 mm and 15 mm, respectively.

With `O=C(N[C@H](CO)[C@H](O)c1ccc([N+](=O)[O-])cc1)C(Cl)Cl` [Chloramphenicol], the “Zone of inhibition in mm, P a” value in assay [3] was found to be 8 mm. Also, the “Zone of inhibition in mm, E a” value in assay [4] came out at 28 mm.

For the compound `Cc1ccccc1` [a], the values for the zone of inhibition at 100000 µM in assay [1] (setting [9]) and in assay [2] (setting [10]) were 8 mm and 20 mm, respectively.
